Results on 1 substance are retold here after patent publication US20150031102A1, “METHODS AND COMPOSITIONS FOR ENHANCED PRODUCTION OF BUTANOL BY CLOSTRIDIA” (Butrolix LLC, priority 2012, published 2015).

This experiment concerns C. acetobutylicum ATCC 824. Briefly: Germination and sequential batch cultures of C. acetobutylicum ATCC 824 grown at 37° C. (growth OD600, final pH, ceric ion reactive compounds). Format: cell-based, Clostridium acetobutylicum. Here is the method:
Clostridium acetobutylicum ATCC 824 and C. beijerinckii NCIMB 8052 are available from several commercial microbial culture collections including the American Type Culture Collection (ATCC), Manassas, Va., USA. The strain grown at 30 C or 37 C in YE broth, which contained, per liter: 5.0 g yeast extract, 2.5 g casamino acids, 1.0 g L-asparagine, 0.5 g cysteine·HCl, 56 mg K2HPO4, 56 mg KH2PO4, 82 mg anhydrous MgSO4, 8 mg FeSO4.H2O, 6 mg MnSO4.H2O and 10 g glucose. Alternatively, strains were grown in YEPG broth, which was identical to YE expect that K2HPO4 and KH2PO4 were increased to 145 mg/L each and glucose was increased to 60 g/L. The pH of the media was adjusted to 7.2 using 45% KOH prior to sterilization by autoclaving. Media were solidified by addition of 1.5% Bacteriological Agar, Acumedia Manufacturers, Inc., Lansing, Mich. All cultures were grown in anaerobic conditions using the AnaeroPack System, Mitsubishi Gas Chemical Co., Inc., Japan, and GasPak EZ Gas Generating Sachets, Becton, Dickinson and Co., Sparks, Md. Spore stocks were kept at room temperature on agar-solidified media and were activated by suspending spores in 0.5 mL to 1.0 mL of medium followed by heating for 10 min at 80 C before inoculation into growth medium.
Growth of bacterial cultures was measured spectrophotometrically using optical density at 600 nm and pH of cell-free culture supernatants was measured using a hand-held Shindengen ISFET pH Meter KS501, Shendengen Electric Manufacturing Co., Ltd., Bannockburn, Ill.
Total alcohols in cell-free culture supernatants were measured using a modification of a colorimetric method based on ceric ammonium nitrate (Reid and Truelove, 1952). The ceric ion reagent was prepared by adding 1.3 mL of concentrated nitric acid to 40 mL of distilled water, then 10.96 g of ceric ammonium nitrate was dissolved in the dilute nitric acid solution and the solution was brought to a final volume of 50 mL. For the assay, […] of butanol standard or culture supernatant was mixed with […] distilled water in a disposable plastic cuvette followed by addition of […] of the ceric ion reagent. The sample was mixed by inverting the cuvette six times then exactly two minutes later the optical density at 500 nm wavelength was measured. The concentration of total alcohols was determined by comparison with a standard curve prepared by using butanol diluted in distilled water.
Spores of C. acetobutylicum ATCC 824 were germinated and grown overnight at 37 C under anaerobic conditions in YEPG medium that either contained 50 nM of peptide SEQ ID NO: 143 or no added peptide. After about 24 h of growth, […] of the untreated culture was transferred (transfer 1) to each of two flasks that contained 10 mL of YEPG with either no treatment or with 50 nM peptide SEQ ID NO: 143. At the same time, 10 μL of the culture that was germinated in the presence of peptide SEQ ID NO: 143 was also transferred to 10 mL of YEPG that contained 50 nM of peptide SEQ ID NO: 143. Thereafter, […] of each culture was transferred, at the same time, every 24-48 h to 10 mL of fresh YEPG that contained the same peptide treatment or no treatment. Each culture was stopped after 72 hours if incubation and optical density, pH and ceric ion reactive chemicals were measured. Sequential batch culturing was continued through 3 transfers at which point the untreated culture and the culture that was germinated and transferred in 50 nM of peptide were still growing, while the culture that was treated with peptide after germination had stopped growing (Table 15 and FIG. 7).

Where [1] appears, read: 50 nM added after germination, transfer 1, 72 h culture.
Setting [2] is: 50 nM added after germination, transfer 2, 72 h culture.
The mark [3] stands for this setting: 50 nM added after germination, transfer 3, 72 h culture.
The mark [4] stands for this setting: 50-50 (germinated and transferred in 50 nM), transfer 1, 72 h culture.
Where [5] appears, read: 50-50 (germinated and transferred in 50 nM), transfer 2, 72 h culture.
Where [6] appears, read: 50-50 (germinated and transferred in 50 nM), transfer 3, 72 h culture.
Setting [7] is: 50-50 (spores germinated in 50 nM peptide), transfer 0 (germinated culture), 72 h culture.

For SYPGWSW [peptide SEQ ID NO: 143], the “Final pH” value under setting [1] amounted to 4.4; the “Final pH” value under setting [2] worked out at 6.0; the “Final pH” value under setting [3] came out at 5.5; the “Final pH” value under setting [4] came out at 4.5; the “Final pH” value under setting [5] is 3.8; the “Final pH” value under setting [6] is reported as 4.6. For the same substance, the “Final pH” value under setting [7] is reported as 4.1. The “Optical density at 600 nm” value runs as follows: under setting [1], 1.891; under setting [2], 0.011; under setting [3], 0.100; under setting [4], 1.715; under setting [5], 1.858; under setting [6], 1.485. Further, under setting [7], the “Optical density at 600 nm” value was 2.121. Moreover, the “Optical density of ceric ion reactive compounds measured at 500 nm” value reads like this: under setting [1], 0.116; under setting [2], 0.000; under setting [3], 0.001; under setting [4], 0.152; under setting [5], −0.063; under setting [6], 0.138. The “Optical density of ceric ion reactive compounds measured at 500 nm” value under setting [7] came to 0.028. The “Growth in sequential transfers” value (50 nM added after germination, untreated survived through 3 transfers) is listed as “did not grow beyond the first transfer”. Under “50 nM peptide treatment during germination and growth”, the “Culture degeneration in terms of production of total alcohols” value is “prevented culture degeneration”.
